Assays:
bedstraw = experiment: Test B pre/postemergence bedstraw; type: in vivo, Galium aparine
Method in brief: (§1)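 Herbicidal effect was estimated by eye on a ten-point control scale after plants spent twelve to sixteen days in a greenhouse following soil or foliar treatment. Foliar sprays targeted plants at one to four leaves; all doses were formulated in a non-phytotoxic solvent with surfactant.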

blackgrass = experiment: Test B pre/postemergence blackgrass; type: in vivo, Alopecurus myosuroides
Method in brief: as §1

surinam grass = experiment: Test B pre/postemergence surinam grass; type: in vivo, Brachiaria decumbens
Method in brief: as §1

corn = experiment: Test B pre/postemergence corn; type: in vivo, Zea mays
Method in brief: as §1

crabgrass = experiment: Test B pre/postemergence crabgrass; type: in vivo, Digitaria sanguinalis
Method in brief: as §1

giant foxtail = experiment: Test B pre/postemergence giant foxtail; type: in vivo, Setaria faberii
Method in brief: as §1

morningglory = experiment: Test B pre/postemergence morningglory; type: in vivo, Ipomoea hederacea; settings: for Plant response rating, Morningglory: scale of 0 to 10 where 0 is no effect and 10 is complete control
Method in brief: as §1

rape = experiment: Test B pre/postemergence rape; type: in vivo, Brassica napus; settings: for Plant response rating, Rape: scale of 0 to 10 where 0 is no effect and 10 is complete control
Method in brief: as §1

soybean = experiment: Test B pre/postemergence soybean; type: in vivo, Glycine max; settings: for Plant response rating, Soybean: scale of 0 to 10 where 0 is no effect and 10 is complete control
Method in brief: as §1

velvetleaf = experiment: Test B pre/postemergence velvetleaf; type: in vivo, Abutilon theophrasti; settings: for Plant response rating, Velvetleaf: scale of 0 to 10 where 0 is no effect and 10 is complete control
Method in brief: as §1

wheat = experiment: Test B pre/postemergence wheat; type: in vivo, Triticum aestivum; settings: for Plant response rating, Wheat: scale of 0 to 10 where 0 is no effect and 10 is complete control
Method in brief: as §1

wild oat = experiment: Test B pre/postemergence wild oat; type: in vivo, Avena fatua; settings: for Plant response rating, Wild oats: scale of 0 to 10 where 0 is no effect and 10 is complete control
Method in brief: as §1

purple nutsedge = experiment: Test B pre/postemergence purple nutsedge; type: in vivo, Cyperus rotundus; settings: for Plant response rating, Nutsedge: scale of 0 to 10 where 0 is no effect and 10 is complete control
Method in brief: as §1

rice = experiment: Test B flood test rice; type: in vivo, Oryza sativa
Method in brief: (§2)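 Each value is a visual injury score relative to controls, with 10 meaning complete control and 0 no effect. Evaluation took place twelve to sixteen days after the 2-leaf-stage plants were treated and kept in the greenhouse.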

smallflower flatsedge = experiment: Test B flood test smallflower flatsedge; type: in vivo, Cyperus difformis
Method in brief: as §2

duck salad = experiment: Test B flood test duck salad; type: in vivo, Heteranthera limosa
Method in brief: as §2

[1] = Preemergence, Rate 250 g/ha, scale 0 to 10, 0 is no effect, 10 is complete control
[2] = Preemergence, Rate 500 g/ha, scale 0 to 10, 0 is no effect, 10 is complete control
[3] = Rate 62 g/ha, Postemergence, scale 0 to 10 (0 no effect, 10 complete control)
[4] = Rate 125 g/ha, Postemergence, scale 0 to 10, 0 is no effect, 10 is complete control
[5] = Postemergence, Rate 250 g/ha, scale 0 to 10
[6] = Postemergence, Rate 500 g/ha, scale of 0 to 10 where 0 is no effect and 10 is complete control
[7] = Preemergence, Rate 62 g/ha, scale of 0 to 10 where 0 is no effect and 10 is complete control
[8] = Preemergence, Rate 125 g/ha, scale of 0 to 10 where 0 is no effect and 10 is complete control
[9] = Rate 62 g/ha, flood test species, Pre-emergence, visual evaluation after twelve to sixteen days
[10] = Rate 125 g/ha, under heading Pre-emergence, flood test species, visual evaluation after twelve to sixteen days
[11] = Rate 250 g/ha, Pre-emergence (flood test species), scale 0 to 10, 0 is no effect, 10 is complete control
[12] = Rate 500 g/ha, Pre-emergence, flood test species, scale 0 to 10 (0 no effect, 10 complete control)

## CC(C)N(C(=O)n1oc(=O)n(CO)c1=O)c1ccc(Cl)cc1 [Compound 457]
bedstraw; [1]
  Bedstraw plant response rating: 0
bedstraw; [2]
  Bedstraw plant response rating: 0
bedstraw; [3]
  Bedstraw plant response rating: 0
bedstraw; [4]
  Bedstraw plant response rating: 0
blackgrass; [5]
  Blackgrass plant response rating: 0
blackgrass; [6]
  Blackgrass plant response rating: 0
blackgrass; [7]
  Plant response rating, Blackgrass: 0
blackgrass; [8]
  Plant response rating, Blackgrass: 0
blackgrass; [1]
  Blackgrass plant response rating: 0
blackgrass; [2]
  Blackgrass plant response rating: 0
blackgrass; [3]
  Blackgrass plant response rating: 0
blackgrass; [4]
  Blackgrass plant response rating: 0
Surinam grass; Postemergence, Rate 250 g/ha, scale 0 to 10, 0 no effect, 10 complete control
  B. signalgrass plant response rating: 0
Surinam grass; [6]
  B. signalgrass plant response rating: 0
Surinam grass; [7]
  Plant response rating, B. signalgrass: 0
Surinam grass; [8]
  Plant response rating, B. signalgrass: 0
Surinam grass; [1]
  B. signalgrass plant response rating: 0
Surinam grass; [2]
  B. signalgrass plant response rating: 0
Surinam grass; [3]
  B. signalgrass plant response rating: 0
Surinam grass; [4]
  B. signalgrass plant response rating: 0
corn; [5]
  Corn plant response rating: 0
corn; [6]
  Corn plant response rating: 0
corn; [7]
  Plant response rating, Corn: 0
corn; [8]
  Plant response rating, Corn: 0
corn; [1]
  Corn plant response rating: 0
corn; [2]
  Corn plant response rating: 0
corn; [3]
  Corn plant response rating: 0
corn; [4]
  Corn plant response rating: 0
crabgrass; [5]
  Crabgrass plant response rating: 0
crabgrass; [6]
  Crabgrass plant response rating: 0
crabgrass; [7]
  Plant response rating, Crabgrass: 0
crabgrass; [8]
  Plant response rating, Crabgrass: 0
crabgrass; [1]
  Crabgrass plant response rating: 0
crabgrass; [2]
  Crabgrass plant response rating: 0
crabgrass; [3]
  Crabgrass plant response rating: 0
crabgrass; [4]
  Crabgrass plant response rating: 0
Giant foxtail; [5]
  Giant foxtail plant response rating: 0
Giant foxtail; [6]
  Giant foxtail plant response rating: 0
Giant foxtail; [7]
  Plant response rating, Giant foxtail: 0
Giant foxtail; [8]
  Plant response rating, Giant foxtail: 0
Giant foxtail; [1]
  Giant foxtail plant response rating: 0
Giant foxtail; [2]
  Giant foxtail plant response rating: 8
Giant foxtail; [3]
  Giant foxtail plant response rating: 0
Giant foxtail; [4]
  Giant foxtail plant response rating: 0
morningglory; [5]
  Morningglory plant response rating: 0
morningglory; Preemergence, Rate 62 g/ha
  Plant response rating, Morningglory: 0
morningglory; Preemergence, Rate 125 g/ha
  Plant response rating, Morningglory: 0
morningglory; [1]
  Morningglory plant response rating: 0
morningglory; [2]
  Morningglory plant response rating: 0
morningglory; [3]
  Morningglory plant response rating: 0
morningglory; [4]
  Morningglory plant response rating: 0
rape; [5]
  Rape plant response rating: 0
rape; Preemergence, Rate 62 g/ha
  Plant response rating, Rape: 0
rape; Preemergence, Rate 125 g/ha
  Plant response rating, Rape: 0
rape; [1]
  Rape plant response rating: 0
rape; [2]
  Rape plant response rating: 0
rape; [3]
  Rape plant response rating: 0
rape; [4]
  Rape plant response rating: 0
soybean; [5]
  Soybean plant response rating: 1
soybean; Preemergence, Rate 62 g/ha
  Plant response rating, Soybean: 0
soybean; Preemergence, Rate 125 g/ha
  Plant response rating, Soybean: 0
soybean; [1]
  Soybean plant response rating: 0
soybean; [2]
  Soybean plant response rating: 0
soybean; [3]
  Soybean plant response rating: 0
soybean; [4]
  Soybean plant response rating: 0
velvetleaf; [5]
  Velvetleaf plant response rating: 0
velvetleaf; Preemergence, Rate 62 g/ha
  Plant response rating, Velvetleaf: 0
velvetleaf; Preemergence, Rate 125 g/ha
  Plant response rating, Velvetleaf: 0
velvetleaf; [1]
  Velvetleaf plant response rating: 0
velvetleaf; [2]
  Velvetleaf plant response rating: 0
velvetleaf; [3]
  Velvetleaf plant response rating: 0
velvetleaf; [4]
  Velvetleaf plant response rating: 0
wheat; [5]
  Wheat plant response rating: 0
wheat; Preemergence, Rate 62 g/ha
  Plant response rating, Wheat: 0
wheat; Preemergence, Rate 125 g/ha
  Plant response rating, Wheat: 0
wheat; [1]
  Wheat plant response rating: 0
wheat; [2]
  Wheat plant response rating: 0
wheat; [3]
  Wheat plant response rating: 0
wheat; [4]
  Wheat plant response rating: 0
Wild oat; [5]
  Wild oats plant response rating: 0
Wild oat; Preemergence, Rate 62 g/ha
  Plant response rating, Wild oats: 0
Wild oat; Preemergence, Rate 125 g/ha
  Plant response rating, Wild oats: 0
Wild oat; [1]
  Wild oats plant response rating: 0
Wild oat; [2]
  Wild oats plant response rating: 0
Wild oat; [3]
  Wild oats plant response rating: 0
Wild oat; [4]
  Wild oats plant response rating: 0
Purple nutsedge; [5]
  Nutsedge plant response rating: 0
Purple nutsedge; Preemergence, Rate 62 g/ha
  Plant response rating, Nutsedge: 0
Purple nutsedge; Preemergence, Rate 125 g/ha
  Plant response rating, Nutsedge: 0
Purple nutsedge; [1]
  Nutsedge plant response rating: 0
Purple nutsedge; [2]
  Nutsedge plant response rating: 0
Purple nutsedge; [3]
  Nutsedge plant response rating: 0
Purple nutsedge; [4]
  Nutsedge plant response rating: 0
rice; [9]
  Plant response rating, Rice (0 to 10 scale, 0 is no effect, 10 is complete control): 0
rice; [10]
  Rice plant response rating (0 to 10 scale, 0 is no effect, 10 is complete control): 0
rice; [11]
  Rice plant response rating: 0
rice; [12]
  Rice plant response rating: 0
Smallflower flatsedge; [9]
  Plant response rating, S. Flatsedge (0 to 10 scale, 0 is no effect, 10 is complete control): 0
Smallflower flatsedge; [10]
  S. Flatsedge plant response rating (0 to 10 scale, 0 is no effect, 10 is complete control): 0
Smallflower flatsedge; [11]
  S. Flatsedge plant response rating: 0
Smallflower flatsedge; [12]
  S. Flatsedge plant response rating: 0
Duck salad; [9]
  Plant response rating, Ducksalad (0 to 10 scale, 0 is no effect, 10 is complete control): 0
Duck salad; [10]
  Ducksalad plant response rating (0 to 10 scale, 0 is no effect, 10 is complete control): 0
Duck salad; [11]
  Ducksalad plant response rating: 0
Duck salad; [12]
  Ducksalad plant response rating: 0

— US6737383B1, “Herbicidal oxadiazolidines” (priority 1999, dated 2004)
